Article PMC6599250, “Functional diversity of inhibitors tackling the differentiation blockage of MLL-rearranged leukemia” (Journal of Hematology & Oncology, 2019)
Like-named read-outs stand apart in the source and are kept apart here.

Legend:
Format in all cases: cell-based
HL-60 (MLL-WT) cells = experiment: Cell proliferation (alamarBlue) HL-60; conditions: Homo sapiens, read-out: IC50 proliferation
Protocol: (§1) Cells were seeded in the optimal growth medium at 4000–5000 cells/well in a 96 MTP and cultured 18–24 h before inhibitor treatment.

Jurkat (MLL-WT) cells = experiment: Cell proliferation (alamarBlue) Jurkat; conditions: Homo sapiens
Protocol: as §1

OCI-AML-5 (MLL-WT) cells = experiment: Cell proliferation (alamarBlue) OCI-AML-5; conditions: Homo sapiens
Protocol: as §1

OCI-AML-3 (MLL-WT) cells = experiment: Cell proliferation (alamarBlue) OCI-AML-3; conditions: Homo sapiens
Protocol: as §1

MV4-11 (MLL-AF4) cells = experiment: Cell proliferation (alamarBlue) MV4-11; conditions: Homo sapiens
Protocol: as §1

RS4;11 (MLL-AF4) cells = experiment: Cell proliferation (alamarBlue) RS4;11; conditions: Homo sapiens, RS4-11, read-out: IC50 proliferation, RS4;11 (MLL-AF4)
Protocol: as §1

SEM (MLL-AF4) cells = experiment: Cell proliferation (alamarBlue) SEM
Protocol: as §1

ML-2 (MLL-AF6) cells = experiment: Cell proliferation (alamarBlue) ML-2
Protocol: as §1

MOLM-13 (MLL-AF9) cells = experiment: Cell proliferation (alamarBlue) MOLM-13; conditions: Homo sapiens
Protocol: as §1

MOLM-14 (MLL-AF9) cells = experiment: Cell proliferation (alamarBlue) MOLM-14; conditions: Homo sapiens
Protocol: as §1

NOMO-1 (MLL-AF9) cells = experiment: Cell proliferation (alamarBlue) NOMO-1; conditions: Homo sapiens
Protocol: as §1

[1] = tested on: OCI-AML-2 (MLL-AF9) cells; experiment: Cell proliferation (alamarBlue) OCI-AML-2; conditions: Homo sapiens
Protocol: as §1

KOPN-8 (MLL-ENL) cells = experiment: Cell proliferation (alamarBlue) KOPN-8; conditions: Homo sapiens
Protocol: as §1

EOL-1 (MLL-TD) cells = experiment: Cell proliferation (alamarBlue) EOL-1; conditions: Homo sapiens
Protocol: as §1

[2] = tested on: MV4-11, MOLM-13 and HL-60 cells; experiment: Cell proliferation, all three tested AML cell lines; conditions: 96 h, read-out: anti-proliferation IC50s
Protocol: Cells were seeded in the optimal growth medium at 4000–5000 cells/well in a 96 MTP and cultured 18–24 h before inhibitor treatment. Upon treatment with the indicated inhibitor, cells were cultured for 24 h, 96 h, and 168 h and effects on proliferation were determined using alamarBlue Cell Viability Reagent (Thermo Fisher Scientific, Waltham, MA, USA).

[3] = tested on: MLL-fused cell lines (MV4-11, MOLM-13); experiment: CD11b protein expression by flow cytometry, MLL-fused lines; conditions: 4 and 7 days of treatment
Protocol: (§2) Four thousand cells per well were seeded 24 h before they were treated with the indicated inhibitor in a 96 MTP. After 4 or 7 days of treatment, cells were washed with PBS and stained with CD11b - APC (BioLegend, San Diego, California, USA) and DAPI (Thermo Fisher Scientific, Waltham, Massachusetts, USA) or AnnexinV – FITC (BioLegend, San Diego, California, USA) and PI solution (Sigma-Aldrich St. Louis, Missouri, USA) using the FACS Canto II (BD Biosciences, Heidelberg, Germany) and data was analyzed with FACSDiva software.

HL-60 cells = experiment: CD11b protein expression by flow cytometry, HL-60; conditions: non-fused HL-60 cell line, 4 and 7 days of treatment
Protocol: as §2

[4] = tested on: MV4-11, MOLM-13 and HL-60 cells; experiment: Cell cycle analysis (PI, flow cytometry); conditions: 4 days of treatment (Figure S2)
Protocol: Cells were washed with PBS and fixed overnight at − 20 °C with 70% ethanol. Fixed cells were stained with PI solution (Sigma-Aldrich St. Louis, MO, USA) solution containing RNase A (Qiagen, Hilden, Germany). Fluorescence was measured with FACS Canto II (BD Biosciences, Heidelberg, Germany) flow cytometer and data was analyzed with FACSDiva software.

Q: How did the IC50 (HL-60 (MLL-WT) cells; HL-60, 24 h) turn out when Cc1c(-c2ccc(-c3ccccc3F)cc2)nc2ccc(F)cc2c1C(=O)O [Brequinar] was run?
A: Its IC50 is > 10000 nM.

Q: And the IC50 (HL-60 (MLL-WT) cells; HL-60, 96 h)?
A: Its IC50 is 800 nM.

Q: And the IC50 (HL-60 (MLL-WT) cells; HL-60, 168 h)?
A: Its IC50 is 270 nM.

Q: And the IC50 (Jurkat (MLL-WT) cells; read-out: IC50 proliferation, Jurkat (MLL-WT), D1)?
A: The IC50 was > 10000 nM.

Q: And the IC50 (Jurkat (MLL-WT) cells; read-out: IC50 proliferation, Jurkat (MLL-WT), D4)?
A: Its IC50 is 30 nM.

Q: What about the IC50 (Jurkat (MLL-WT) cells; read-out: IC50 proliferation, Jurkat (MLL-WT), D7) of the same compound?
A: Its IC50 is 50 nM.

Q: And the IC50 (OCI-AML-5 (MLL-WT) cells; OCI-AML-5, read-out: IC50 proliferation, OCI-AML-5 (MLL-WT), D1)?
A: Its IC50 is > 10000 nM.

Q: What about the IC50 (OCI-AML-5 (MLL-WT) cells; OCI-AML-5, read-out: IC50 proliferation, OCI-AML-5 (MLL-WT), D4) of the same compound?
A: Its IC50 is > 10000 nM.

Q: What about the IC50 (OCI-AML-5 (MLL-WT) cells; OCI-AML-5, read-out: IC50 proliferation, OCI-AML-5 (MLL-WT), D7) of the same compound?
A: The IC50 was > 10000 nM.

Q: What about the IC50 (OCI-AML-3 (MLL-WT) cells; OCI-AML-3, read-out: IC50 proliferation, OCI-AML-3 (MLL-WT), D1) of the same compound?
A: Its IC50 is > 10000 nM.

Q: What about the IC50 (OCI-AML-3 (MLL-WT) cells; OCI-AML-3, read-out: IC50 proliferation, OCI-AML-3 (MLL-WT), D4) of the same compound?
A: The IC50 was 200 nM.

Q: What about the IC50 (OCI-AML-3 (MLL-WT) cells; OCI-AML-3, read-out: IC50 proliferation, OCI-AML-3 (MLL-WT), D7) of the same compound?
A: Its IC50 is 240 nM.

Q: What about the IC50 (MV4-11 (MLL-AF4) cells; MV4-11, read-out: IC50 proliferation, MV4-11 (MLL-AF4), D1) of the same compound?
A: The IC50 was > 10000 nM.

Q: And the IC50 (MV4-11 (MLL-AF4) cells; MV4-11, read-out: IC50 proliferation, MV4-11 (MLL-AF4), D4)?
A: Its IC50 is 100 nM.

Q: And the IC50 (MV4-11 (MLL-AF4) cells; MV4-11, read-out: IC50 proliferation, MV4-11 (MLL-AF4), D7)?
A: The IC50 was 220 nM.

Q: What about the IC50 (RS4;11 (MLL-AF4) cells; D1) of the same compound?
A: The IC50 was > 10000 nM.

Q: What about the IC50 (RS4;11 (MLL-AF4) cells; D4) of the same compound?
A: Its IC50 is 1100 nM.

Q: What about the IC50 (RS4;11 (MLL-AF4) cells; D7) of the same compound?
A: Its IC50 is > 10000 nM.

Q: What about the IC50 (SEM (MLL-AF4) cells; read-out: IC50 proliferation, SEM (MLL-AF4), D1) of the same compound?
A: Its IC50 is > 10000 nM.

Q: What about the IC50 (SEM (MLL-AF4) cells; read-out: IC50 proliferation, SEM (MLL-AF4), D4) of the same compound?
A: Its IC50 is 190 nM.

Q: What about the IC50 (SEM (MLL-AF4) cells; read-out: IC50 proliferation, SEM (MLL-AF4), D7) of the same compound?
A: The IC50 was 250 nM.

Q: What about the IC50 (ML-2 (MLL-AF6) cells; read-out: IC50 proliferation, ML-2 (MLL-AF6), D1) of the same compound?
A: Its IC50 is > 10000 nM.

Q: What about the IC50 (ML-2 (MLL-AF6) cells; read-out: IC50 proliferation, ML-2 (MLL-AF6), D4) of the same compound?
A: Its IC50 is 500 nM.

Q: And the IC50 (ML-2 (MLL-AF6) cells; read-out: IC50 proliferation, ML-2 (MLL-AF6), D7)?
A: Its IC50 is 310 nM.

Q: And the IC50 (MOLM-13 (MLL-AF9) cells; MOLM-13, read-out: IC50 proliferation, MOLM-13 (MLL-AF9), D1)?
A: The IC50 was > 10000 nM.

Q: What about the IC50 (MOLM-13 (MLL-AF9) cells; MOLM-13, read-out: IC50 proliferation, MOLM-13 (MLL-AF9), D4) of the same compound?
A: The IC50 was 110 nM.

Q: And the IC50 (MOLM-13 (MLL-AF9) cells; MOLM-13, read-out: IC50 proliferation, MOLM-13 (MLL-AF9), D7)?
A: The IC50 was 220 nM.

Q: And the IC50 (MOLM-14 (MLL-AF9) cells; MOLM-14, read-out: IC50 proliferation, MOLM-14 (MLL-AF9), D1)?
A: Its IC50 is > 10000 nM.

Q: And the IC50 (MOLM-14 (MLL-AF9) cells; MOLM-14, read-out: IC50 proliferation, MOLM-14 (MLL-AF9), D4)?
A: The IC50 was 320 nM.

Q: And the IC50 (MOLM-14 (MLL-AF9) cells; MOLM-14, read-out: IC50 proliferation, MOLM-14 (MLL-AF9), D7)?
A: Its IC50 is 180 nM.

Q: And the IC50 (NOMO-1 (MLL-AF9) cells; NOMO-1, read-out: IC50 proliferation, NOMO-1 (MLL-AF9), D1)?
A: Its IC50 is > 10000 nM.

Q: And the IC50 (NOMO-1 (MLL-AF9) cells; NOMO-1, read-out: IC50 proliferation, NOMO-1 (MLL-AF9), D4)?
A: Its IC50 is 270 nM.

Q: What about the IC50 (NOMO-1 (MLL-AF9) cells; NOMO-1, read-out: IC50 proliferation, NOMO-1 (MLL-AF9), D7) of the same compound?
A: The IC50 was 130 nM.

Q: What about the IC50 ([1]; OCI-AML2, read-out: IC50 proliferation, OCI-AML-2 (MLL-AF9), D1) of the same compound?
A: The IC50 was > 10000 nM.

Q: What about the IC50 ([1]; OCI-AML2, read-out: IC50 proliferation, OCI-AML-2 (MLL-AF9), D4) of the same compound?
A: The IC50 was > 10000 nM.

Q: And the IC50 ([1]; OCI-AML2, read-out: IC50 proliferation, OCI-AML-2 (MLL-AF9), D7)?
A: Its IC50 is > 10000 nM.

Q: And the IC50 (KOPN-8 (MLL-ENL) cells; KOPN-8, read-out: IC50 proliferation, KOPN-8 (MLL-ENL), D1)?
A: Its IC50 is > 10000 nM.

Q: And the IC50 (KOPN-8 (MLL-ENL) cells; KOPN-8, read-out: IC50 proliferation, KOPN-8 (MLL-ENL), D4)?
A: The IC50 was 300 nM.

Q: And the IC50 (KOPN-8 (MLL-ENL) cells; KOPN-8, read-out: IC50 proliferation, KOPN-8 (MLL-ENL), D7)?
A: The IC50 was 360 nM.

Q: And the IC50 (EOL-1 (MLL-TD) cells; EOL1, read-out: IC50 proliferation, EOL-1 (MLL-TD), D1)?
A: The IC50 was > 10000 nM.

Q: What about the IC50 (EOL-1 (MLL-TD) cells; EOL1, read-out: IC50 proliferation, EOL-1 (MLL-TD), D4) of the same compound?
A: Its IC50 is 380 nM.

Q: And the IC50 (EOL-1 (MLL-TD) cells; EOL1, read-out: IC50 proliferation, EOL-1 (MLL-TD), D7)?
A: Its IC50 is 110 nM.

Q: What about the IC50 [2] of the same compound?
A: The IC50 was 30 to 140 nM.

Q: What about the “CD11b protein level” value [3] of the same compound?
A: Its value is “increased CD11b protein level in a dose and time-dependent manner”.

Q: And the “CD11b level” value (HL-60 cells)?
A: Its value is “treatment did”.

Q: What about the “cell cycle effect” value [4] of the same compound?
A: The value was “slight S-phase arrest at lower concentrations”.
